Where “and” joins values, the source holds several entries; their conditions need not be identical. Equal values may be shown once.
Settings: Liquid, Transpiration method

CN(C)CCCN(C)C [N,N,N',N'-tetramethyl-1,3-propanediamine]
Settings	vapor or sublimation pressure
273.5 K	0.1509 kPa and 0.1417 kPa
274.2 K	0.1541 kPa
275 K	0.1633 kPa
275.6 K	0.1714 kPa
276.1 K	0.1754 kPa
276.6 K	0.1837 kPa
277.1 K	0.191 kPa
278.4 K	0.2056 kPa
279.2 K	0.2168 kPa
281.1 K	0.2546 kPa
283.4 K	0.2873 kPa and 0.3004 kPa
285.8 K	0.3528 kPa
287.6 K	0.4012 kPa
289 K	0.455 kPa
294.3 K	0.6329 kPa
295.7 K	0.6783 kPa
299.2 K	0.8136 kPa and 0.8194 kPa
300.8 K	0.9386 kPa
304.3 K	1.143 kPa
305.8 K	1.227 kPa and 1.226 kPa
309.1 K	1.435 kPa
310.8 K	1.654 kPa
310.9 K	1.663 kPa
315.6 K	2.117 kPa and 2.069 kPa and 2.116 kPa
323.1 K	3.214 kPa

CN(C)CCCN [N,N-dimethyl-1,3-propanediamine]
Settings	vapor or sublimation pressure
273.5 K	0.1753 kPa
273.8 K	0.1802 kPa
274.2 K	0.1875 kPa
275.8 K	0.2076 kPa
275.9 K	0.2029 kPa
276.4 K	0.2181 kPa
277.8 K	0.2407 kPa
278.1 K	0.2481 kPa
278.4 K	0.2539 kPa
281.1 K	0.2962 kPa
281.4 K	0.3109 kPa
283.4 K	0.3594 kPa and 0.3558 kPa and 0.3618 kPa
285.8 K	0.4176 kPa
286.2 K	0.4454 kPa
288.1 K	0.5012 kPa and 0.4936 kPa
288.7 K	0.5167 kPa
288.8 K	0.5086 kPa
289.2 K	0.5356 kPa and 0.538 kPa
291.7 K	0.628 kPa
292.1 K	0.6355 kPa and 0.6539 kPa
293 K	0.6977 kPa
294.9 K	0.7794 kPa
295.2 K	0.8075 kPa
296.9 K	0.8821 kPa
297.8 K	0.9313 kPa
298.2 K	0.981 kPa
298.9 K	1.011 kPa
299.7 K	1.058 kPa

CNCCCN [N-methyl-1,3-diaminopropane]
Settings	vapor or sublimation pressure [kPa]
276.2 K	0.09113
279.3 K	0.1163
282.3 K	0.1481
285.2 K	0.1855
288.2 K	0.2287
291.2 K	0.2973
292.7 K	0.3328
294.1 K	0.3667
297.1 K	0.4634
298.8 K	0.5298
300.2 K	0.5889
303.2 K	0.7223

CCN(CC)CCCN [N,N-diethylpropane-1,3-diamine]
Settings	vapor or sublimation pressure
277.2 K	0.03765 kPa
279.1 K	0.04448 kPa
280.2 K	0.04785 kPa
283.2 K	0.06153 kPa
286.2 K	0.07622 kPa
287.7 K	0.08442 kPa
288.2 K	0.09379 kPa
289.2 K	0.09614 kPa
291.1 K	0.1087 kPa and 0.1173 kPa
292.1 K	0.1195 kPa
293.2 K	0.1316 kPa
295.2 K	0.1494 kPa and 0.1591 kPa
297.2 K	0.17 kPa
297.3 K	0.1835 kPa and 0.1811 kPa
297.4 K	0.1872 kPa
297.5 K	0.1799 kPa
298.2 K	0.1935 kPa
299.4 K	0.2021 kPa
299.5 K	0.2132 kPa
301.2 K	0.2397 kPa
303.1 K	0.274 kPa and 0.2527 kPa
303.3 K	0.2637 kPa
305.1 K	0.3138 kPa
